Experimental findings from ChEMBL document CHEMBL3779791, “Captopril analogues as metallo-β-lactamase inhibitors” (Bioorg Med Chem Lett, 2016) are described below.

Activity calls are given as the source filed them. No cut-off for these calls is given here.

The test system of the experiment is Pseudomonas aeruginosa. The experiment can be described thus: Competitive inhibition of Pseudomonas aeruginosa 101/1477 metallo-beta-lactamase IMP-1 expressed in Escherichia coli BL21 (DE3) using benzylpenicillin as substrate by spectrophotometric analysis.

Regarding `O=C(O)CC(=O)N1CCC[C@H]1C(=O)O`, the Kic entry is “inactive”. For `O=C(O)CCC(=O)N1CCC[C@@H]1C(=O)O`, the Kic entry was “inactive”. `O=C(O)[C@@H]1CCCN1C(=O)CCCS`: the Kic amounted to 7.2 µM. The molecule `O=C(O)C1CCCCN1C(=O)CCCS` (racemic) had a Kic of 7.1 µM. The figure for `CC(=O)SCC(=O)N1CCCCC1C(=O)O` (racemic) is 24 µM; for `O=C(O)[C@H]1CCCN1C(=O)CS` it is 2.3 µM. The figure for `O=C(O)[C@@H]1CCCN1C(=O)CCS` is 9.9 µM. As for `O=C(O)CC(=O)N1CCC[C@@H]1C(=O)O`, the Kic entry is “inactive”. As to `O=C(O)[C@H]1CCCN1C(=O)CCS`, the Kic stood at 2.9 µM. Regarding `O=C(O)C1CCCCN1C(=O)CCS` (racemic), the Kic was determined as 10 µM.

For `O=C(O)[C@H]1CCCN1C(=O)CCCS`, the Kic came to 5.8 µM. On to `O=C(O)COC[C@H]1CCCN1C(=O)CCS`, for which the Kic amounted to 390 µM. In the case of `O=C(O)COC[C@H]1CCCN1C(=O)CS`, the Kic was determined as 290 µM. `O=C(O)COC[C@H]1CCCN1C(=O)CCCS` gave a Kic of 363 µM. On to `O=C(O)CCCC(=O)N1CCC[C@@H]1C(=O)O`, for which the Kic entry is “inactive”. The entry for `O=C(O)CCC(=O)N1CCC[C@H]1C(=O)O` is “inactive”; for `O=C(O)[C@@H]1CCCN1C(=O)CS` it is 2.2 µM.

In turn, `O=C(O)C1CCCCN1C(=O)CS` (racemic) registered a Kic of 3.4 µM. For `O=C(O)CCCC(=O)N1CCC[C@H]1C(=O)O`, the Kic result was “inactive”.
